Marks after values point to notes of the source that are not given here.

The test system of test [1] is arrhythmia of rats induced by Aconitine. In words: Arrhythmia of rats induced by Aconitine. In kind it is in vivo, SD rats. Conditions: {}. Here is the method: Male SD rats, weighing (218.3±20.0) g, were anaesthetized with urethane 1.2 g/kg body weight by abdominal injection, continuously monitored by II lead electrocardiogram (ECG) by MS302 Biological Signal Record and Analysis System. After ten minutes of being administered drug or 0.5% CMC-Na through sublingual vein, rats were injected with Aconitine in external jugular vein at 2.5 μg/min speed, recorded the dose at appearance time of ventricular premature beat (VP), ventricular tachycardia (VT), ventricular fibrillation (VF) and cardiac arrest (CA), respectively. And t test was performed. […] The effect of compounds Ca Do E at 0.5 mg/kg dose were remarkably better than that of Prasterone and Arniodarone.

For test [2], the system named is arrhythmia of guinea pigs induced by Ouabain. The test is described as follows: Arrhythmia of guinea pigs induced by Ouabain. In kind it is in vivo. Conditions: drug 3 mg/kg 10 min before Ouabain 3 μg/min, n=8. Here is the method:
Chose 40 male guinea pigs, weighing (288.8±38.3) g, randomly divided into six groups, anaesthetized with urethane 1.2 g/kg by abdominal injection. Ten minutes after administered drug or 0.5% CMC-Na, the guinea pigs were injected Ouabain into external jugular vein at 3 μg/min speed, recorded ECG respectively, measured the dose at appearance time of VP, VT, VF and CA, and performed t test.

Test [3] deals with arrhythmia of rats induced by BaCl2. In words: Arrhythmia of rats induced by BaCl2. In kind it is in vivo, SD rats. Conditions: BaCl2 4 mg/kg, within 60 min, n=10. Here is the method:
50 male SD rats, weighing (236.7±13.7)g, were anaesthetized with 10% chloral hadrate 0.3 g/kg intraperitoneally, recorded ECG with intubating of external jugular vein administering drug. As soon as injected with BaCl2 4 mg/kg, rats usually emerged VP and VT quickly and developed to be the steady and typical double-aspect arrhythmia. After immediately injected with drug or 0.5% CMC-Na into vein, recorded the time of recovering and maintaining sinus rhythm within 60 min as standard, and compared the function between five groups. […] Time of maintaining sinus rhythm was longer and acted more quickly than that of Amiodarone group.

In test [4] the test system is myocardium injury model of rats induced by ISO. In words: Myocardium injury (myocardial ischemia) model of rats induced by ISO. It counts as in vivo, SD rats. Conditions: drug 0.76 mg/kg, n=8; for Σ ST: rats, ISO s.c. Here is the method: SD rats were measured ECG by chest leads before experiment, abandoned those of abnormal or arrhythmia at T wave, ST sect. […] They were divided into four groups according to Table 4, eight rats in each group. As dose of Table 4, tested compounds or 0.5% CMC-Na solution with same volume were administered through duodenum for 30 minutes, rats were anaesthetized with aether. After ECG was recorded, Isoproterenol (ISO) was administered by subcutaneous injection from the back, recorded ECG again after 30 minutes. After specimen was intragastricly granted for 24 hours and 48 hours, every group was administered simples again and recorded ECG again in terms of the methods stated above. After 72 hours, bleeding from the ophthalmic venous plexus and separated blood serum through centrifugation. Killed the rats, scissor the tip of the heart to prepare 10% myocardial tissue homogenate with 4° C. physiological saline as standby.
Measured each rat's value of ST before first administering ISO. And after first, second and third subcutaneous injection for 30 minutes, calculated mv mean value of ΣST as guide line of myocardium injury and performed t test.
The changes of MDA LDH and CK in serum were measured with agent kits.
The changes of MDA, LDH and CK in serum and myocardial tissue homogenate were measured with agent kits.

In test [5] the test system is cerebral ischemia-reperfusion injury of mice. In words: Memory step-through test after cerebral ischemia-reperfusion injury. It counts as in vivo, NIH mice. Conditions: 4.5 mg/kg intragastric once a day for 10 days, n=10. Here is the method: After weighed, NIH mice were anaesthetized with Penbotarbital 60 mg/kg, then performed operation. Fixed at supine position, the skin in the middle of the deck was dissected about 7 mm. Separated common carotid artery of two sides of neck, surrounded with the thread of No “0”. Common carotid artery of two sides was chipped with artery clip for 2 minutes to induce cerebral ischemia. In the end of ischemia treatment, artery clip was loosed and blood perfusion was restored, rest for five minutes, repeated twice as that. After blocking blood flow of carotid, sutured incision. Recorded trail bloodletting, bloodletting quantity was no more than 10% of total blood quantity. After operation, […] were administered with proper physiological saline through intraperitoneal injection in order to supple capacity of blood. After pseudo operation group was anaesthetized, carotid of two sides was separated but blood flow was not blocked, without being bloodletting too.
In experiment appearance of body temperature lowering and righting reflex disappearing was as positive guide-line of ischemia, discarding those without typical guide line of ischemia. In the procedure of ischemia or after operation, some of animals would be dead. […] According to the dose of Table 7, animals were administered with medicine by intragastric intubation once a day, and continue administered drug for 10 days. After 10 days, memory test was performed.

Test [6] concerns thymus and spleen of mice. In words: Indexes of thymus and spleen of mice injected with cyclophosphamide. In kind it is in vivo, NIH mice. Conditions: cyclophosphamide 60 mg/kg i.p., drug 10 mg/kg intragastric for 30 days, n=10. Here is the method:
Chose 90 healthy NIH mice, weighing (18˜22)g, equal amount of male and female. Every mouse was injected with cyclophos phamide (60 mg/kg, intraperitoneally). […] Administered specimen through intragastric intubation in terms of the dose in Table 8. Continuously administered orally specimen for 30 days, all mice fasted on the 30th day, but were supplied with water. On the 31th day, mice of every group were killed. Weighed their body, thymus and spleen, calculated index of thymus and spleen, compared the difference among each group.

The test system of test [7] is osteoporosis model of rats induced by Retinoic acid. The test is described as follows: Osteoporosis model of rats induced by Retinoic acid. It counts as in vivo, SD rats. Conditions: Retinoic acid 70 mg/kg, specimen orally 30 days (dose not given), right thighbone, n=8. From the text: After continuously administering specimen for 30 days, killed rats and took right thighbone of rat.
Took same part tissue of right thighbone, routinely decalcified, enveloped with olefin, and dyed with HE. Observed with ordinary optics microscope, import all imagines into computer with A/D conversion of pickup camera, via dealing with image analysis software obtained index of guide line as follows: relative bone volume, indicating percentage that bone trabecula accounted for medullary cavity, 1.25×10×4 times; average width of bone trabecula, 1.25×10×10 times; amount of cell per area in bone trabecula, gathering same area image (640×480) of bone trabecula with image analysis software, calculating amount of bone cell in corresponding area, 1.25×10×40 times; Average length of bone cell lacuna, 1.25×10×40; Average width of bone cell lacuna, 1.25×10×40. The above five indexes of static state guide-line were all observed for ten eyeshots, calculating their average value.

In test [8] the test system is acute renal failure of mice induced by endotoxin. The test is described as follows: Acute renal failure model induced by endotoxin. Conditions: drug 10 mg/kg i.p., endotoxin 0.06 g/kg, after five hours, n=10; for GSH-Px: mice kidney homogenate; for BUN / Cr: mice serum. It counts as in vivo, NIH mice. Here is the method:
After five hours, blood of the mice was collected by removing eyes, assayed Blood Urea Nitrogen (BUN) and Creatinine (Cr) concentration of serum. One kidney of each […] was taken out and made 100 mL/L homogenate, assayed activity of Glutathione Peroxidase (GSH-Px) enzyme.

Where [9] appears, read: myocardial tissue homogenate of rats with ISO myocardium injury.
The mark [10] stands for this setting: serum of rats with ISO myocardium injury, after 72 hours.

For `CCCCc1oc2ccccc2c1C(=O)c1cc(I)c(OCCN(CC)CC)c(I)c1` [Amiodarone, reference compound], in test [1], the “Dose of Aconitine required to induce CA” value came to 0.176 ± 0.038 mg/kg, the “Dose of Aconitine required to induce VF” value was determined as 0.1412 ± 0.0282 mg/kg, the “Dose of Aconitine required to induce VP” value is 0.09 ± 0.0257 mg/kg and the “Dose of Aconitine required to induce VT” value stood at 0.1088 ± 0.0254 mg/kg. Further, in test [2], the “Dose of Oua at appearance of CA” value came to 0.2836 ± 0.0439 mg/kg, the “Dose of Oua at appearance of VF” value worked out at 0.2476 ± 0.0461 mg/kg, the “Dose of Oua at appearance of VP” value stood at 0.1184 ± 0.0335 mg/kg and the “Dose of Oua at appearance of VT” value turned out to be 0.175 ± 0.0411 mg/kg. In test [3] (drug 3 mg/kg into vein), the “time of maintaining sinus rhythm” value is 40.156 ± 5.124 min and the “time of storing sinus rhythm” value turned out to be 15.859 ± 5.126 min.

Consider “butanediol-disulphonic acid-(5-androsten-17-one-3β-ol)-diester [Compound I]”, for which, in test [3] (drug 0.5 mg/kg into vein), the “time of maintaining sinus rhythm” value was determined as 45.478 ± 5.271 min and the “time of storing sinus rhythm” value amounted to 6.752 ± 4.132 min. Besides, in test [4] (setting [9]), the “Activity of CK” value was 214.27 ± 40.62 U/L, the “Activity of LDH” value is 159.82 ± 31.69 U/L and the MDA is recorded as 115.02 ± 10.34 nmol/g. Moreover, the “Σ ST” value in test [4] (30 min) is on record as 0.49 ± 0.12 mv. The “Σ ST” value in test [4] (24 h) is recorded as 0.54 ± 0.12 mv. Further, in test [4] (48 h), the “Σ ST” value was determined as 0.50 ± 0.06 mv. Further, the “Σ ST” value in test [4] (72 h) is 0.54 ± 0.08 mv. Moreover, in test [4] (setting [10]), the “Activity of CK” value is recorded as 242.14 ± 22.72 U/L, the “Activity of LDH” value stood at 233.35 ± 18.46 U/L and the MDA was found to be 24.64 ± 2.53 nmol/mL. Moreover, in test [5], the “Latency of dark cabin, Memory” value is 46.5 ± 13.8 s; the “Latency of dark cabin, Study” value stood at 25.7 ± 14.8 s; the Number of error came to 3.1 ± 1.7 n. In test [6], this compound displayed an Index of spleen of 69.60 ± 16.10 mg/10 g body weight and an Index of thymus of 16.44 ± 3.25 mg/10 g body weight. Also, in test [7], the “Amount of cell per area in bone trabecula” value was 31.84 ± 3.94, the “Average width of bone trabecula” value is on record as 61.37 ± 4.71 μm and the Relative bone volume is 29.84 ± 3.56 %. For the same compound, in test [8], the GSH-Px is reported as 37.6 ± 15.1 nU · L^−1, the BUN is recorded as 344.4 ± 40.6*** 10 mg · L^−1 and the Cr was 34.41 ± 9.65*** 10 mg · L^−1.

Consider “pentanediol-disulphonic acid-(5-androsten-17-one-3β-ol)-diester [Compound J]”, for which, in test [3] (drug 1.5 mg/kg into vein), the “time of maintaining sinus rhythm” value amounted to 51.762 ± 6.275 min and the “time of storing sinus rhythm” value is 3.584 ± 2.471 min. Besides, in test [3] (drug 2.5 mg/kg into vein), the “time of maintaining sinus rhythm” value is on record as 59.248 ± 1.527 min and the “time of storing sinus rhythm” value is given as 0.845 ± 1.529 min. In addition, in test [4] (setting [9]), the “Activity of CK” value worked out at 268.28 ± 42.59 U/L, the “Activity of LDH” value is on record as 197.45 ± 26.88 U/L and the MDA came out at 95.67 ± 15.67 nmol/g. The “Σ ST” value in test [4] (30 min) came out at 0.54 ± 0.12 mv. Further, the “Σ ST” value in test [4] (24 h) was 0.52 ± 0.07 mv. Moreover, the “Σ ST” value in test [4] (48 h) was determined as 0.56 ± 0.07 mv. In addition, the “Σ ST” value in test [4] (72 h) worked out at 0.54 ± 0.08 mv. Moreover, in test [4] (setting [10]), the “Activity of CK” value is 239.40 ± 16.15 U/L, the “Activity of LDH” value is 257.05 ± 31.30 U/L and the MDA stood at 26.47 ± 3.25 nmol/mL. Besides, in test [5], the “Latency of dark cabin, Memory” value is 52.0 ± 17.2 s; the “Latency of dark cabin, Study” value was 30.8 ± 15.0 s; the Number of error was 3.2 ± 1.6 n. In test [6], this compound yielded an Index of spleen of 61.29 ± 15.34 mg/10 g body weight and an Index of thymus of 17.24 ± 3.34 mg/10 g body weight. In test [7], the “Amount of cell per area in bone trabecula” value turned out to be 29.84 ± 3.16, the “Average width of bone trabecula” value turned out to be 67.84 ± 4.68 μm and the Relative bone volume worked out at 37.55 ± 3.26 %. Further, in test [8], the GSH-Px was determined as 32.2 ± 13.1 nU · L^−1, the BUN is on record as 337.6 ± 32.8*** 10 mg · L^−1 and the Cr was 37.60 ± 8.44*** 10 mg · L^−1.

The record behind these values is patent US20040171594A1, “Use of bis-acid(5-androsten-17-one-3beta-hydroxyl)diester for manufacture pharmaceuticals” (priority 2001, published 2004).
